Laboratory results as given in US20260284080A1 (priority 2025, published 2026).

Assay: physchem
Format: physicochemical
Excerpt: Abiraterone acetate is a white to off-white, non-hygroscopic, crystalline powder.

## CC(=O)O[C@H]1CC[C@@]2(C)C(=CC[C@@H]3[C@@H]2CC[C@]2(C)C(c4cccnc4)=CC[C@@H]32)C1 [abiraterone acetate, (3B)-17-(3-pyridinyl) androsta-5,16-dien-3-yl acetate]
  pKa: 5.19
